Broadly, the IC50 is the concentration needed to halve the response being measured. Low readings indicate greater potency in that assay, high ones weaker potency in that assay.

The test concerns the target T1, cGMP-PDE prepared from the swine aeorta (Sus scrofa, UniProt A0A287B475).
T1 construct: The swine aeorta was sliced; from tissue; host or cells: swine aorta, 100000×g supernatant, DEAE-Toyopearl 650S fraction
Put plainly: Enzyme inhibiting action with the use of cGMP-PDE prepared from the swine aorta. Conditions: CaM-independent cGMP-PDE, 1 mM EGTA, 1 μM cGMP substrate, DMSO 4% or below. Format: biochemical. The protocol: Enzyme inhibiting action with the use of cGMP-PDE prepared from the swine aeorta
The enzymatic activity of the cGMP-PDE prepared from the swine aeorta was determined according to the method of Thompson et al. ^(1). The enzymatic activity thereof was determined in the presence of 1 mM EGTA by the use of 1 μM cGMP as a substrate. The compound of the present invention was dissolved in DMSO, added to the reaction liquid and examined for the inhibitory activity. The final concentration of DMSO in the reaction liquid was adjusted to 4% or below. (1) Thompson, W. J. and Strada, S. J., Cyclic Nucleotide Phosphodiesterase (PDE), in Methods of Enzymatic Analysis, vol 4, p.127-234, 1984.
The swine aeorta was sliced, followed by the addition of 10 times by volume as much Buffer A (20 mM Tris/HCl, 2 mM Mg acetate, 1 mM Dithiothreitol, 5 mM EDTA, 1400 TIU/liter aprotinin, 10 mg/liter leupeptin, 1 mM benzamidine, 0.2 mM PMSF, pH 7.5). The obtained mixture was homogenized and the homogenate was centrifuged at 100000×g for one hour. The obtained supernatant was supplied a DEAE-Toyopearl 650S (Tosoh, Tokyo, Japan) column. After the column was washed with Buffer B (50 mM Tris/HCl, 0.1 mM EGTA, 2 mM Mg acetate, 1 mM Dithiothreitol, 0.2 mM PMSF, pH 7.5), gradient elution with 0.05 to 0.4M NaCl was conducted. Thus, CaM-independent cGMP-PDE fractions were obtained.
`COc1ccc(CNc2ncnc3c(OC)c(OC)c(OC)cc23)cc1` [Example 7, 4-(4-Methoxybenzyl)amino-6,7,8-trimethoxyquinazoline] registered an IC50 of 1000 nM.

As to `COc1cc2c(NCc3ccc(Cl)c(Cl)c3)ncnc2c(OC)c1OC` [Example 19, 4-(3,4-Dichlorobenzyl)amino-6,7,8-trimethoxyquinazoline], half-maximal inhibition (IC50) required 390 nM.

Take `COc1ccc(CNc2ncnc3c(OC)c(OC)c(OC)cc23)cc1F` [Example 22, 4-(3-Fluoro-4-methoxybenzyl)amino-6,7,8-trimethoxyquinazoline]: the midpoint of inhibition, the IC50, lay at 360 nM.

`COc1cc2c(NCc3ccc4c(c3)OCCO4)ncnc2c(OC)c1OC` [Example 25, 4-(4-Ethylenedioxybenzyl)amino-6,7,8-trimethoxyquinazoline] gave an IC50 of 780 nM.

With `COc1cc2c(NCc3cc4c(cc3Cl)OCO4)ncnc2c(OC)c1OC` [Example 33, 4-(2-Chloro-4,5-methylenedioxybenzyl)amino-6,7,8-trimethoxyquinazoline], 370 nM corresponded to half-maximal inhibition (IC50).

`COc1cc2c(NC(C)c3ccc4c(c3)OCO4)ncnc2c(OC)c1OC` (stereo not drawn) [Example 38, 4-(α-Methyl-3,4-methylenedioxybenzyl)amino-6,7,8-trimethoxyquinazolin] yielded an IC50 of 420 nM.

In turn, `CCN(Cc1ccc2c(c1)OCO2)c1ncnc2c(OC)c(OC)c(OC)cc12` [Example 40] returned an IC50 of 650 nM.

In the case of `CCOC(=O)CN(Cc1ccc2c(c1)OCO2)c1ncnc2c(OC)c(OC)c(OC)cc12` [Example 41, 4-[N-(Ethoxycarbonylmethyl)-(3,4-methylenedioxybenzyl)amino]-6,7,8-trimethoxyquinazoline], inhibition was half-maximal at 350 nM (IC50).

In turn, `COCCN(Cc1ccc2c(c1)OCO2)c1ncnc2c(OC)c(OC)c(OC)cc12` [Example 42, 4-[N-(2-Methoxyethyl)-(3,4-methylenedioxybenzyl)-amino]-6,7,8-trimethoxyquinazoline] yielded an IC50 of 190 nM.

In turn, `COc1ccc2ncnc(NCc3ccc4nc[nH]c4c3)c2c1` [Example 45, 4-(Benzimidazol-5-ylmethyl)amino-6-methoxyquinazoline] came in with an IC50 of 410 nM.

With `COc1ccc2ncnc(NCc3ccc4c(c3)OCO4)c2c1` [Example 46, 4-(3,4-Methylenedioxybenzyl)amino-6-methoxyquinazoline], the IC50 came out at 240 nM.

Turning to `CSc1ccc2ncnc(NCc3ccc(Cl)c(Cl)c3)c2c1` [Example 50, 4-(3,4-Dichlorobenzyl)amino-6-methylthioquinazoline], the IC50 came out at 32 nM.

The compound `COc1ccc(CNc2ncnc3ccc(SC)cc23)cc1F` [Example 51, 4-(3-Fluoro-4-methoxybenzyl)amino-6-methylthioquinazoline] displayed a half-maximal inhibitory concentration (IC50) of 69 nM. Against the preceding compound, the IC50 is about 2.2-fold higher.

`CSc1ccc2ncnc(NCc3ccc4nc[nH]c4c3)c2c1` [Example 52, 4-(Benzimidazol-5-ylmethyl)amino-6-methylthioquinazoline] gave an IC50 of 69 nM.

`COCCN(Cc1ccc2c(c1)OCO2)c1ncnc2ccc(SC)cc12` [Example 53, 4-[N-(2-Methoxyethyl)-(3,4-methylenedioxybenzyl)amino]-6-methylthioquinazoline] came in with an IC50 of 120 nM.

Turning to `CSc1ccc2ncnc(N(CCO)Cc3ccc4c(c3)OCO4)c2c1` [Example 54, 4-[N-(2-Hydroxyethyl)-(3,4-methylenedioxybenzyl)amino]-6-methylthioquinazoline], inhibition was half-maximal at 470 nM (IC50).

Consider `O=[N+]([O-])c1cc(CNc2ncnc3ccc(Cl)cc23)ccc1Cl` [Example 55], for which the IC50 was determined as 30 nM. This IC50 lies about 16-fold lower than the previous one.

In turn, `Clc1ccc2ncnc(NCc3ccc(Cl)c(Cl)c3)c2c1` [Example 58, 4-(3,4-Dichlorobenzyl)amino-6-chloroquinazoline] displayed an IC50 of 42 nM.

The compound `COc1ccc(CNc2ncnc3ccc(Cl)cc23)cc1OC` [Example 59, 4-(3,4-Dimethoxybenzyl)amino-6-chloroquinazoline] yielded an IC50 of 270 nM.

In turn, `Clc1ccc2ncnc(NCc3ccc4nc[nH]c4c3)c2c1` [Example 60, 4-(Benzimidazol-5-ylmethyl)amino-6-chloroquinazoline] gave an IC50 of 180 nM.

In the case of `COC1Cc2cc(CNc3ncnc4ccc(Cl)cc34)ccc2O1` (centres unmarked) [Example 61, 4-(2-Methoxy-2,3-dihydrobenzofuran-5-yl)methylamino6-chloroquinazoline], the IC50 is 420 nM. Compared with the last compound, the IC50 is about 2.3-fold higher.

Compound `CCOc1ccc2ncnc(NCc3ccc4c(c3)OCO4)c2c1` [Example 64, 4-(3,4-Methylenedioxybenzyl)amino-6-ethoxyquinazoline] had an IC50 of 380 nM.

With `N#Cc1ccc2ncnc(NCc3ccc4nc[nH]c4c3)c2c1` [Example 67, 4-(Benzimidazol-5-yl)methylamino-6-cyanoquinazoline], the IC50 is 140 nM. This IC50 is about 2.7-fold lower than that of the compound before.

Compound `CCOC(=O)c1ccc2ncnc(NCc3ccc4c(c3)OCO4)c2c1` [Example 68, 4-(3,4-Methylenedioxybenzyl)amino-6-ethoxycarbonylquinazoline] displayed an IC50 of 620 nM.

As for `Cc1ccc2ncnc(NCc3ccc4c(c3)OCO4)c2c1` [Example 69, 4-(3,4-Methylenedioxybenzyl)amino-6-methylquinazoline], the IC50 is 190 nM. This IC50 lies about 3.3-fold lower than the previous one.

In turn, `COc1cc(OC)c2ncnc(NCc3ccc4c(c3)OCO4)c2c1` [Example 71, 4-(3,4-Methylenedioxybenzyl)amino-6,8-dimethoxyquinazoline] had an IC50 of 810 nM. Compared with the last compound, the IC50 is about 4.3-fold higher.

In the case of `COc1ccc2ncnc(NCc3ccc4c(c3)OCO4)c2c1OC` [Example 72, 4-(4-Methylenedioxybenzyl)amino-5,6-dimethoxyquinazoline], the IC50 came out at 730 nM.

In the case of `COc1cc2ncnc(NCc3ccc4c(c3)OCO4)c2cc1NC(C)=O` [Example 73, 4-(3,4-Methylenedioxybenzyl)amino-6-acetamido-7-methoxyquinazoline], the IC50 stood at 940 nM.

Take `COc1cc2ncnc(NCc3ccc4c(c3)OCO4)c2cc1SC` [Example 74, 4-(34-Methylenedioxybenzyl)amino-6-methylthio-7-methoxyquinazoline]: the IC50 was 350 nM.

Regarding `c1ccc2cc3c(NCc4ccc5c(c4)OCO5)ncnc3cc2c1` [Example 78, 4-(3,4-Methylenedioxybenzyl)aminobenzo[g]quinazoline], the IC50 came out at 500 nM.

In turn, `COc1cc2c(NCc3ccc4c(c3)OCO4)nc(C)nc2c(OC)c1OC` [Example 81, 2-Methyl-4-(3,4-methylenedioxybenzyl)amino-6,7,8-trimethoxyquinazoline] yielded an IC50 of 440 nM. This IC50 and that of the compound before are within 1.5-fold of each other.

Compound `COc1ccc2nc(C(C)C)nc(NCc3ccc4c(c3)OCO4)c2c1` [Example 82, 2-Isopropyl-4-(3,4-methylenedioxybenzyl)amino-6-methoxyquinazoline] came in with an IC50 of 550 nM. The IC50 values of the last two compounds are within 1.5-fold of each other.

As to `CCCOc1ccccc1-c1nc(NCc2ccc3c(c2)OCO3)c2cc(Cl)ccc2n1` [Example 83, 2-(2-Propoxyphenyl)-4-(3,4-methylenedioxybenzyl)amino-6-chloroquinazoline], the IC50 was determined as 24 nM.

Compound `CCCOc1ccccc1-c1nc(NCc2ccc3c(c2)OCO3)c2ccccc2n1` [Example 84, 2-(2-Propoxyphenyl)-4-(3,4-methylenedioxybenzyl)aminoquinazoline] returned an IC50 of 220 nM. This IC50 lies about 9.2-fold higher than the previous one.

Regarding `COc1ccc2nc(OC)nc(NCc3ccc4c(c3)OCO4)c2c1` [Example 89, 2,6-Dimethoxy-4-(3,4-methylenedioxybenzyl)aminoquinazoline], the IC50 is 160 nM.

These data come from patent US5801180A, “Quinazoline derivatives” (priority 1991, dated 1998).
